# Experimental data as given in patent publication EP0181128A2, “N6-bicycloadenosines” (WARNER-LAMBERT COMPANY, priority 1984, dated 1986).
# Where two headings read alike, the source gives them in different places.
# Assays:
# [1] = molecular target: T1, adenosine A1 receptor (Rattus norvegicus, UniProt P25099); experiment: Adenosine Receptor Binding - A1 Receptor Affinity (RBA1), [3H]-CHA displacement in brain membranes; design: species or system rats; settings: 1.0 nM [3H]-CHA, rat whole brain membranes, one hour at 25°C; read-out: RBA-1
# T1 sequence (P25099 1-326): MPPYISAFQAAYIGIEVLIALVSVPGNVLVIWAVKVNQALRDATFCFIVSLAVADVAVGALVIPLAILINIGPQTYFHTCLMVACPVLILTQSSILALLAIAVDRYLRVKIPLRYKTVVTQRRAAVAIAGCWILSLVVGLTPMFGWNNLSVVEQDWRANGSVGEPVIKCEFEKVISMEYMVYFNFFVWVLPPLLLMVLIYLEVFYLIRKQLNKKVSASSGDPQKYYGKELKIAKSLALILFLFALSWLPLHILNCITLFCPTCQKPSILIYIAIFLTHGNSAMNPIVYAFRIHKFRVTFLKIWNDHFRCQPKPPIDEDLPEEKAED
# Description: Adenosine Receptor Binding - A1 Receptor Affinity (RBA1)
# The supernatant was discarded, and the pellet was resuspended and centrifuged as before.
# Incubation volume was 2 ml. Unbound [^3H]-CHA was separated by rapid filtration under reduced pressure through Whatman glass fiber (GF/B) filters.
# Nonspecific binding was defined as the binding which occurred in the presence of 1 mM theophylline. […] Since the amount of radioligand bound was a small fraction of the total amount added, free radioligand was defined as the concentration (nM) of radioligand added to the incubation mixture.
# [2] = test system: male Swiss-Webster mice; experiment: Antiwrithing (AW) test (analgesic test), acetic acid-induced writhing; assay type: in vivo; settings: Mus musculus, sc; subcutaneous, 20 minutes before acetic acid (0.6%, 10 ml/kg) i.p.; dose suppressing writhing by 50%
# Description: The antiwrithing (AW) test provides preliminary assessment of compounds with potential analgesic activity. The test is performed in male Swiss-Webster mice. Compounds are administered subcutaneously in aqueous 0.2% methylcellulose or other appropriate vehicles in volumes of 10 ml/kg. Dosages represent active moiety.
# Acetic acid (0.6%, 10 ml/kg) is injected intraperitoneally 20 minutes after administration of the adenosine agonist. Writhing movements are counted for five minutes starting seven minutes after the acetic acid injection. Writhing is defined as abdominal constriction and stretching of the body and hind legs with concave arching of the back. Data are.expressed as ED50 values, where the ED50 is the dose necessary to suppress writhing by 50% relative to vehicle controls. ED50 values are calculated by nonlinear regression analysis.
# [3] = test system: Carrageenan pleurisy; experiment: Carrageenan pleurisy assay (immunoinflammatory test); assay type: in vivo, rats; settings: Rattus norvegicus; for ED50: 4 h, four hours after carrageenan, compound given one hour prior to carrageenan
# Description: Assessment of immunoinflammatory or antiinflammatory activity is provided by the carrageenan pleurisy assay. Carrageenan pleurisy is induced as previously described by Carter, G. W., et al., in J. Pharm. Pharmacol 34:66-67, 1982. Carrageenan (310 ug/rat) is injected intrapleurally in a 0.25 ml volume of pyrogen-free saline. Four hours later, the rats are sacrificed and 2 ml of a phenol red solution (325 mg phenol red in 1 liter of 0.05 M phosphate buffered saline) are added to each pleural cavity. The contents of the cavities are mixed and transferred to glass test tubes. A 50 ul aliquot is removed from each tube and exudate cells are counted after red blood cells lysis (with Zapoglobin; Coulter Electronics, Hialeah FL) using a Coulter model ZBI counter. The remaining exudate-phenol red mixture is centrifuged at 750 xg for 15 minutes. One hundred µl of the supernatent fluid is diluted with 3.9 ml of phosphate buffer (0.072 M of tribasic sodium phosphate, Na3PO4·12H2O, in water) and the absorbance is measured at 560 nm.
# Exudate volume is calculated as follows: [formula] where V1 = unknown volume of exudate, V2 K volume of dye added to cavity (2 ml), A1 = absorbance of exudate (assumed to be zero), A2 = absorbance of the phenol red solution, A3 = absorbance of exudate and phenol red solution.
# Inhibition of exudate or formation is calculated by the following equations: [formula] [formula] ID50 values are calculated by Probit analysis.
# The compound of Example 1 was administered one hour prior to carrageenan injection.
# [4] = molecular target: adenosine A2 receptor (Rattus norvegicus, UniProt P30543); experiment: Adenosine Receptor Binding - A2 Receptor Affinity (RBA2), [3H]NECA displacement in striatal membranes; design: species or system rats; settings: 4 nM [3H]NECA, 50 nM N6-cyclopentyladenosine, 60 minutes at 25°C, read-out: RBA-2
# Sequence of adenosine A2 receptor (P30543 whole entry): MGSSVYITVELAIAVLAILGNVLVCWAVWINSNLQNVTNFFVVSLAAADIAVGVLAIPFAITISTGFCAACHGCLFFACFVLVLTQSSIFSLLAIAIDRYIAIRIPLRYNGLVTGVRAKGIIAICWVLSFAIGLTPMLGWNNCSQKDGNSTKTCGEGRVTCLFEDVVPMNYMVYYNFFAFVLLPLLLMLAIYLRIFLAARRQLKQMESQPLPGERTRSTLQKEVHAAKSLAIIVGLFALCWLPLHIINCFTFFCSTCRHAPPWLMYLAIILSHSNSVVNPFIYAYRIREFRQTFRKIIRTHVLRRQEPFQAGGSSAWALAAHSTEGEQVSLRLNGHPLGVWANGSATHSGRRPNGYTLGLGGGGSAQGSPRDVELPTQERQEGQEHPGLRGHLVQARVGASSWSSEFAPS
# Description: Adenosine Receptor Binding - A2 Receptor Affinity (RBA2)
# Brains from 200-500 g mixed sex Sprague-Dawley rats were purchased from Pel-Freez (Rogers, Arkansas). […] Brains were thawed and then kept on ice while the striata were dissected out. […] When needed, tissue was thawed at room temperature, disrupted in a Polytron, and kept on ice until used.
# Test compounds were dissolved at 10 mM in dimethylsulfoxide on the same day as the experiment, and diluted in dimethylsulfoxide to 100x the final incubation concentration. […] [^3H]NECA was diluted to 40 nM in Tris. […] After all additions, the rack of tubes was vortexed, and the tubes were then incubated for 60 min at 25°C in a shaking water bath. The rack of tubes was vortexed an additional time halfway through the incubation.
# Incubations were terminated by filtration through 2.4 cm GF/B filters under reduced pressure. Each tube was filtered as follows: the contents of the tube were poured onto the filter, 4 ml of ice-cold Tris were added to the tube and the contents poured onto the filter, and the filter was washed twice with 4 ml of ice-cold Tris. The filtration was complete in about twelve seconds. Filters were put in scintillation vials, 8 ml of Formula 947 scintillation fluid added, and the vials left overnight, shaken, and counted in a liquid scintillation counter at 40% efficiency.
SMILES,IC50 [1] [nM],ED50 [2] [mg/kg],"ED50 ([3]; exudate cells (WBC), read-out: ID50 (mg/kg) WBC) [mg/kg]","ED50 ([3]; exudate volume, read-out: ID50 (mg/kg) Exudate) [mg/kg]",inhibition at 0.1 mg/kg ([3]; read-out: % Inhibition Exudate) [%],inhibition at 0.1 mg/kg ([3]; read-out: % Inhibition WBC) [%],inhibition at 0.2 mg/kg ([3]; read-out: % Inhibition Exudate) [%],inhibition at 0.2 mg/kg ([3]; read-out: % Inhibition WBC) [%],inhibition at 0.4 mg/kg ([3]; read-out: % Inhibition Exudate) [%],inhibition at 0.4 mg/kg ([3]; read-out: % Inhibition WBC) [%],inhibition at 0.8 mg/kg ([3]; read-out: % Inhibition Exudate) [%],inhibition at 0.8 mg/kg ([3]; read-out: % Inhibition WBC) [%],inhibition at 0.3 mg/kg ([3]; read-out: % Inhibition Exudate) [%],inhibition at 0.3 mg/kg ([3]; read-out: % Inhibition WBC) [%],inhibition at 1 mg/kg ([3]; read-out: % Inhibition Exudate) [%],inhibition at 1 mg/kg ([3]; read-out: % Inhibition WBC) [%],IC50 [4] [nM]
"OCC1OC(n2cnc3c(NC4CC5CCC4C5)ncnc32)C(O)C1O (stereo not drawn) [Example 1, N6-endo-Bicyclo[2.2.1]heptyl adenosine]",0.85,0.03,0.12,0.15,49.3,74.1,60,70,81.3,90,42.7,68.4,–,–,–,–,–
"OCC1OC(n2cnc3c(NC4CC5CCC4C5)ncnc32)C(O)C1O (stereo not drawn) [Example 2, N6-exo-Bicyclo[2.2.1]heptyladenosine]",1.4,–,–,–,–,–,–,–,–,–,–,–,24.3,25.7,22.9,52.9,–
"OC1C(CCl)OC(n2cnc3c(NC4CC5CCC4C5)ncnc32)C1O (stereo not drawn) [Example 5, N6-2-endo-norbornyl-5'-chloro-5'-deoxy-adenosine]",0.69,–,–,–,11.7,18.4,–,–,–,–,–,–,16.8,40,–,–,3090
